Assay results: publication PMC5444705 (Oncotarget, 2017)
Read-outs that look alike come from different tables or passages of the source.

Assays:
Hep3B cells = test: MTT assay, Hep3B; type: cell-based; details: Homo sapiens
Procedure: (§1) HepG2, Hep3B, Huh7 or L02 cells were seeded in 96-well plates at a density of 5 × 10^3 cells per well. […] After 24 and 48 h of co-incubation, used media were removed and cells were washed twice with PBS. Fresh medium containing 20 μl of MTT ([…]) was added in and cells were cultured for an additional 4 h at 37°C in a 5% CO2incubator. After that, media were removed and 200 μl of DMSO was added in. The optical density value was determined by the microplate reader (Multiskan MK3, Thermo Fisher Scientific, Atlanta, GA, USA) at 492 nm.

HepG2 cells = test: MTT assay, HepG2; type: cell-based; details: Homo sapiens
Procedure: as §1

[1] = mouse, in vivo, 4 mg/kg
Procedure: To determine the toxicity of WND and WNP, we collected tissues from the mice used in efficacy study for histological analysis. […] For the efficacy study, 4 × 10^6 HepG2 cells were injected in the front armpit of the Balb/C nude mice. […] The tumor sizes were measured every other day and any death of the mice was recorded. […] TUNEL, Ki67 and hematoxylin and eosin (H&E) staining were performed by using the resected tumor tissue from mice for efficacy study. The tissue sections were examined and photographed with a microscope (Olympus SZX12, Japan) connected to a PC.

Huh7 cells = test: MTT assay, Huh7; type: cell-based; details: Homo sapiens
Procedure: as §1

L02 cells = test: MTT assay, L02; type: cell-based; details: Homo sapiens
Procedure: as §1

HepG2 xenograft tumor = test: Anti-tumor efficacy in HepG2 xenograft tumor mouse model; type: in vivo, Balb/C nude mice; details: tail vein injection, 4 mg/kg (WCN-21), 25th day after injection
Procedure: Tumor volume and mouse body weights were recorded during drug administration period. The mice were sacrificed at 25th day after the injection and tumors were collected for histology examination.
For the efficacy study, 4 × 10^6 HepG2 cells were injected in the front armpit of the Balb/C nude mice. […] The tumor sizes were measured every other day and any death of the mice was recorded. […] TUNEL, Ki67 and hematoxylin and eosin (H&E) staining were performed by using the resected tumor tissue from mice for efficacy study. The tissue sections were examined and photographed with a microscope (Olympus SZX12, Japan) connected to a PC.

CC[C@@]1(O)C(=O)OCc2c1cc1n(c2=O)Cc2cc3c(CN(C)C)c(O)ccc3nc2-1 [Topotecan]
IC50 (Hep3B cells; 24 h): 462 ± 20 nM
IC50 (Hep3B cells; 48 h): 112 ± 2.4 nM
IC50 (HepG2 cells; HepG2, 24 h): 1590 ± 20.6 nM
IC50 (HepG2 cells; HepG2, 48 h): 285 ± 9 nM
Body weight change [1]: significant body weight loss
Histological analysis of hearts, livers, spleens, lungs and kidneys [1]: myocardial fiber fracture and cardiocytes necrosis in hearts, inflammatory infiltration in livers, atrophied white pulp in spleens and disorganization of renal corpuscles in kidneys
IC50 (Huh7 cells; Huh 7, 24 h): 500 ± 69 nM
IC50 (Huh7 cells; Huh 7, 48 h): 117 ± 48 nM
IC50 (L02 cells; L02, 24 or 48 h, time not specified, read-out: IC50 in L02 cells): > 500 nM
IC50 (L02 cells; L02, 24 h, MTT, read-out: IC50): > 500 nM
IC50 (L02 cells; L02, 48 h, MTT, read-out: IC50): > 500 nM
Tumor size at 25th day (HepG2 xenograft tumor): 837 mm^3
